Measured values reported in patent US4217305A, “Phenylethanolamine derivatives” (Yamanouchi Pharmaceutical Co., Ltd., priority 1977, dated 1980).
Structures can show the parent of a compound that is named as a salt. Where two headings read alike, the source gives them in different places.

What was measured:
Type in all cases: in vivo
[1] = tested on: spontaneously hypertensive rats; test: Antihypertensive effects in spontaneously hypertensive rats, oral administration; settings: at 10 mg/Kg p.o., mean ± S.E. of 5 to 10 animals, measured indirectly from the tail
Procedure: B. Antihypertensive effects in spontaneously hypertensive rats: Oral administration: The systolic blood pressure was measured indirectly from the tail using a programmed electro-sphygmanometer (Nacro Bio-Systems Inc., PE-300) on spontaneously hypertensive rats having a systolic blood pressure of higher than 150 mmHg, the result being shown in Table II.

β-Adrenergic = β-Adrenergic blocking action: antagonism of isoproterenol induced tachycardia in rats; settings: reserpine pretreated, pentobarbital anesthetized rats, isoproterenol 0.1 μg/Kg iv.; for ED50: Rattus norvegicus, iv; for β-blocking (Rat) ED50: i.v., hydrochloride
Procedure: Bilateral vagotomy was performed at the neck. The effects of the test samples to antagonize the isoproterenol (0.1 μg/Kg iv.) induced tachycardia were measured and the results were shown in Table I.

α-Adrenergic = α-Adrenergic blocking action: antagonism of hypertensive response to phenylephrine in anesthetized rats; settings: for ED50: Rattus norvegicus, iv, read-out: α-blocking (Rat) ED50; for α-blocking (Rat) ED50: i.v., hydrochloride
Procedure: A. α-Adrenergic blocking action: (a) The blood pressure was measured in rats anesthetized with urethane and treated with pentolinium.

[2] = urethane anesthetized, pentolinium treated rats, phenylephrine 10 μg/Kg i.v.

SMILES: COc1ccccc1OCCNCC(O)c1ccc(OC)c(S(N)(=O)=O)c1.Cl (stereo not drawn) [Example 48, 5-{1-Hydroxy-2-[2-(2-methoxyphenoxy)ethylamino]ethyl}-2-methoxybenzenesulfonamide hydrochloride]
- antihypertensive effect: change in systolic blood pressure [1]: -49 ± 4.9 mmHg

SMILES: Cc1ccc(C(O)CNC(C)CCc2ccccc2)cc1S(N)(=O)=O.Cl (stereo not drawn) [Example 24, 5-[1-hydroxy-2-(1-methyl-3-phenylpropylamino)ethyl]-2-methylbenzenesulfonamide hydrochloride]
- antihypertensive effect: change in systolic blood pressure [1]: -27 ± 6.1 mmHg

SMILES: C=CCOc1ccccc1OCCNCC(O)c1ccc(C)c(S(N)(=O)=O)c1.Cl (stereo not drawn) [Example 18, 5-{2-[2-(2-Allyloxyphenoxy)ethylamino]-1-hydroxyethyl}-2-methylbenzenesulfonamide hydrochloride]
- antihypertensive effect: change in systolic blood pressure [1]: -34 ± 5.2 mmHg

SMILES: COc1cc(CO)ccc1OCCNCC(O)c1ccc(C)c(S(N)(=O)=O)c1 (stereo not drawn) [Example 50]
- ED50 (β-Adrenergic): 0.049 mg/kg
- ED50 (α-Adrenergic; [2]): 0.3 mg/kg

SMILES: Cc1ccc(C(O)CNCCOc2ccc(O)cc2)cc1S(N)(=O)=O.Cl (stereo not drawn) [Example 45, 5-{1-Hydroxy-2-[2-(4-hydroxyphenoxy)ethylamino]ethyl}-2-methylbenzenesulfonamide hydrochloride]
- ED50 (β-Adrenergic): 0.013 mg/kg
- ED50 (α-Adrenergic; [2]): 0.86 mg/kg

SMILES: COc1ccccc1CCC(C)NCC(O)c1ccc(C)c(S(N)(=O)=O)c1.Cl (stereo not drawn) [36(i2), 5-{1-hydroxy-2-[3-(2-methoxyphenyl)-1-methylpropylamino]ethyl}-2-methylbenzenesulfonamide hydrochloride]
- β-blocking (Rat) ED50 (β-Adrenergic): 0.41 mg/kg
- α-blocking (Rat) ED50 (α-Adrenergic; [2]): 0.093 mg/kg
- antihypertensive effect: change in systolic blood pressure ([1]; hydrochloride, 10 mg/kg): -33 ± 5.7 mmHg

SMILES: CCOc1ccccc1OCCNCC(O)c1ccc(C)c(S(N)(=O)=O)c1.Cl (stereo not drawn) [Example 60, 5-{1-Hydroxy-2-[2-(2-ethoxyphenoxy)ethylamino]ethyl}-2-methylbenzenesulfonamide hydrochloride]
- antihypertensive effect: change in systolic blood pressure [1]: -31 ± 2.8 mmHg

SMILES: Cc1ccc(C(O)CNC(C)C2COc3ccccc3O2)cc1S(N)(=O)=O (stereo not drawn) [Example 28]
- ED50 (β-Adrenergic): 0.42 mg/kg
- ED50 (α-Adrenergic; [2]): 1.1 mg/kg
- antihypertensive effect: change in systolic blood pressure [1]: -23 ± 4.3 mmHg

SMILES: CC(CCc1ccccc1)NCC(O)c1ccc(N)c(S(N)(=O)=O)c1 (stereo not drawn) [Example 64, 2-Amino-5-[1-hydroxy-2-(1-methyl-3-phenylpropylamino)ethyl]benzenesulfonamide]
- ED50 (β-Adrenergic): 0.12 mg/kg
- ED50 (α-Adrenergic; [2]): 0.2 mg/kg

SMILES: COc1ccccc1OCC(C)NCC(O)c1ccc(O)c(S(N)(=O)=O)c1.Cl (stereo not drawn) [Example 43, 2-Hydroxy-5-{1-hydroxy-2-[2-(2-methoxyphenoxy)-1-methylethylamino]ethyl}benzenesulfonamide hydrochloride]
- ED50 (β-Adrenergic): 0.53 mg/kg
- ED50 (α-Adrenergic; [2]): 0.0091 mg/kg
- antihypertensive effect: change in systolic blood pressure [1]: -33 ± 6.9 mmHg

SMILES: CC(CCc1ccccc1)NCC(O)c1ccc(O)c(C(N)=O)c1 (stereo not drawn) [Labetalol, 5-[1-hydroxy-2-(1-methyl-3-phenyl-propyl)aminoethyl]salicylamide, reference compound]
- ED50 (α-Adrenergic): 1.1 mg/kg
- antihypertensive effect: change in systolic blood pressure [1]: -10 ± 3.6 mmHg

SMILES: Cc1ccc(C(O)CNCCOc2ccccc2CO)cc1S(N)(=O)=O (stereo not drawn) [Example 15, 5-{1-Hydroxy-2-[2-(2-hydroxymethylphenoxy)ethylamino]-ethyl}-2-methylbenzenesulfonamide]
- ED50 (β-Adrenergic): 0.15 mg/kg
- ED50 (α-Adrenergic; [2]): 0.13 mg/kg
- antihypertensive effect: change in systolic blood pressure [1]: -11 ± 4.3 mmHg

SMILES: COc1cc(C(O)CNC(C)CCc2ccccc2)cc(S(N)(=O)=O)c1.Cl (stereo not drawn) [Example 30, 3-[1-Hydroxy-2-(1-methyl-3-phenylpropylamino)ethyl]-5-methoxybenzenesulfonamide hydrochloride]
- ED50 (β-Adrenergic): 0.052 mg/kg
- ED50 (α-Adrenergic; [2]): 1.8 mg/kg

SMILES: COc1ccccc1CCC(C)NCC(O)c1ccc(C)c(S(N)(=O)=O)c1.Cl (stereo not drawn) [36(i1), 5-{1-hydroxy-2-[3-(2-methoxyphenyl)-1-methylpropylamino]ethyl}-2-methylbenzenesulfonamide hydrochloride]
- β-blocking (Rat) ED50 (β-Adrenergic): 0.071 mg/kg
- α-blocking (Rat) ED50 (α-Adrenergic; [2]): 1.2 mg/kg
- antihypertensive effect: change in systolic blood pressure ([1]; hydrochloride, 10 mg/kg): -18 ± 6.1 mmHg

SMILES: COc1ccccc1OCC(C)(C)NCC(O)c1ccc(C)c(S(N)(=O)=O)c1 (stereo not drawn) [Example 9]
- ED50 (β-Adrenergic): 0.26 mg/kg
- ED50 (α-Adrenergic; [2]): 0.89 mg/kg
- antihypertensive effect: change in systolic blood pressure [1]: -25 ± 4.2 mmHg

SMILES: CCOc1ccccc1OCCNCC(O)c1ccc(OC)c(S(N)(=O)=O)c1.Cl (stereo not drawn) [Example 61, 5-{1-Hydroxy-2-[2-(2-ethoxyphenoxy)ethylamino]ethyl}-2-methoxybenzenesulfonamide hydrochloride]
- antihypertensive effect: change in systolic blood pressure [1]: -54 ± 5.4 mmHg

SMILES: CC(NCC(O)c1ccc(O)c(S(N)(=O)=O)c1)C1COc2ccccc2O1 (stereo not drawn) [70(i1'), 2-hydroxy-5-{1-hydroxy-2-[1-(1,4-benzodioxan-2-yl)ethylamino]ethyl}benzenesulfonamide]
- antihypertensive effect: change in systolic blood pressure [1]: -27 ± 6.1 mmHg

SMILES: COc1ccc(C(O)CNC(C)C2COc3ccccc3O2)cc1S(N)(=O)=O (stereo not drawn) [72(i1'), 5-{1-hydroxy-2-[1-(1,4-benzodioxan-2-yl)ethylamino]ethyl}-2-methoxybenzenesulfonamide hydrochloride (i1 ')]
- antihypertensive effect: change in systolic blood pressure [1]: -30 ± 4.3 mmHg

SMILES: CCOc1ccccc1OCC(C)NCC(O)c1ccc(C)c(S(N)(=O)=O)c1.Cl (stereo not drawn) [Example 39, 5-{1-Hydroxy-2-[2-(2-ethoxyphenoxy)-1-methylethylamino]-ethyl}-2-methylbenzenesulfonamide hydrochloride]
- ED50 (β-Adrenergic): 0.27 mg/kg
- ED50 (α-Adrenergic; [2]): 0.066 mg/kg
- antihypertensive effect: change in systolic blood pressure [1]: -11 ± 5.5 mmHg

SMILES: COc1cc(O)ccc1OCCNCC(O)c1ccc(C)c(S(N)(=O)=O)c1 (stereo not drawn) [Example 13, 5-{1-Hydroxy-2-[2-(4-hydroxy-2-methoxyphenoxy)ethylamino]ethyl}-2-methylbenzenesulfonamide]
- ED50 (β-Adrenergic): 0.014 mg/kg
- ED50 (α-Adrenergic; [2]): 0.23 mg/kg

SMILES: CCOc1cc(CO)ccc1OCCNCC(O)c1ccc(C)c(S(N)(=O)=O)c1 (stereo not drawn) [Example 52, 5-{1-Hydroxy-2-[2-(2-ethoxy-4-hydroxymethylphenoxy)ethylamino]ethyl}-2-methylbenzenesulfonamide]
- ED50 (β-Adrenergic): 0.022 mg/kg
- ED50 (α-Adrenergic; [2]): 1.1 mg/kg

SMILES: COc1ccc(C(O)CNC(C)CCc2ccccc2)cc1S(N)(=O)=O.Cl (stereo not drawn) [Example 25, 5-[1-Hydroxy-2-(1-methyl-3-phenylpropylamino)ethyl]-2-methoxybenzenesulfonamide hydrochloride]
- ED50 (β-Adrenergic): 0.035 mg/kg
- ED50 (α-Adrenergic; [2]): 1.3 mg/kg

SMILES: CCOc1ccccc1OCCNCC(O)c1ccc(O)c(S(N)(=O)=O)c1.Cl (stereo not drawn) [Example 62, 2-Hydroxy-5-{1-hydroxy-2-[2-(2-ethoxyphenoxy)ethylamino]-ethyl}benzenesulfonamide hydrochloride]
- antihypertensive effect: change in systolic blood pressure [1]: -47 ± 6.6 mmHg

SMILES: COc1cc(C)ccc1OCCNCC(O)c1ccc(C)c(S(N)(=O)=O)c1.Cl (stereo not drawn) [Example 46, 5-{1-Hydroxy-2-[2-(2-methoxy-4-methylphenoxy)ethylamino]-ethyl}-2-methylbenzenesulfonamide hydrochloride]
- antihypertensive effect: change in systolic blood pressure [1]: -20 ± 4.5 mmHg

SMILES: Cc1ccc(C(O)CNCCOc2ccccc2O)cc1S(N)(=O)=O (stereo not drawn) [Example 63, 5-{1-Hydroxy-2-[2-(2-hydroxyphenoxy)ethylamino]ethyl}-2-methylbenzenesulfonamide]
- ED50 (β-Adrenergic): 0.08 mg/kg
- ED50 (α-Adrenergic; [2]): 0.27 mg/kg
